Test [1] concerns the target human recombinant Aurora B (Homo sapiens (Human), UniProt Q96GD4). As to the kind of experiment: Aurora B Kinase Biochemical Assay (ADP-Glo). Particulars: ratio of Aurora B IC50 to PLK4 IC50 (selectivity). The gist of the method:
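Recombinant human Aurora B (20 nM in pH 7.5 HEPES buffer with MgCl2, EGTA, DTT, Brij-35, BSA) preincubated with compound 15 min at RT. ADP formed quantified by ADP-Glo luminescence after ATP depletion (40 min) and detection (30 min). IC50 from four-parameter non-linear regression.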
(In general: ADP-Glo turns the ADP formed in a reaction into a luminescent signal.)

The test system of test [2] is CHP-134 cells. As to the kind of experiment: CHP134 CellTiter-Glo (CTG) Assay. Type of test: cell-based. Particulars: Homo sapiens, CHP-134, 120 h, 5 days, viable cells by CellTiter-Glo. The gist of the method:
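CHP-134 cells seeded at 200 cells/well for 16 h, then given nine 1:3 serial dilutions in quadruplicate at 37° C, 5% CO2. Viable cells measured by CellTiter-Glo luminescence after 5 days; IC50 calculated from curves.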
(In general: ATP-based viability assays read luminescence as a measure of living cells.)

In test [3] the target is human recombinant PLK4 (Homo sapiens (Human), UniProt O00444). Briefly: PLK4 Biochemical Assay (ADP-Glo). The settings on record: 0.5 nM PLK4, 8.0 µM ATP, 4.7 µM MBP, 6 hours at RT. In short, it runs like this:
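Recombinant human PLK4 (added at 1.0 nM) was preincubated 15 min at RT with compound in 50 mM HEPES pH 7.5, 10 mM MgCl2, 1 mM EGTA, 1 mM DTT, 0.01% Brij-35, 0.01% BSA. ADP formed was detected by ADP-Glo luminescence (40 min ATP depletion, 30 min detection). IC50 came from a four-parameter fit.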

In test [4] the target is human recombinant Aurora A (Homo sapiens (Human), UniProt O14965). Briefly: Aurora A Kinase Biochemical Assay (ADP-Glo). The settings on record: ratio of Aurora A IC50 to PLK4 IC50 (selectivity).

The IC50 is the concentration that gives 50% inhibition.

Chain of human recombinant PLK4 (O00444 whole entry): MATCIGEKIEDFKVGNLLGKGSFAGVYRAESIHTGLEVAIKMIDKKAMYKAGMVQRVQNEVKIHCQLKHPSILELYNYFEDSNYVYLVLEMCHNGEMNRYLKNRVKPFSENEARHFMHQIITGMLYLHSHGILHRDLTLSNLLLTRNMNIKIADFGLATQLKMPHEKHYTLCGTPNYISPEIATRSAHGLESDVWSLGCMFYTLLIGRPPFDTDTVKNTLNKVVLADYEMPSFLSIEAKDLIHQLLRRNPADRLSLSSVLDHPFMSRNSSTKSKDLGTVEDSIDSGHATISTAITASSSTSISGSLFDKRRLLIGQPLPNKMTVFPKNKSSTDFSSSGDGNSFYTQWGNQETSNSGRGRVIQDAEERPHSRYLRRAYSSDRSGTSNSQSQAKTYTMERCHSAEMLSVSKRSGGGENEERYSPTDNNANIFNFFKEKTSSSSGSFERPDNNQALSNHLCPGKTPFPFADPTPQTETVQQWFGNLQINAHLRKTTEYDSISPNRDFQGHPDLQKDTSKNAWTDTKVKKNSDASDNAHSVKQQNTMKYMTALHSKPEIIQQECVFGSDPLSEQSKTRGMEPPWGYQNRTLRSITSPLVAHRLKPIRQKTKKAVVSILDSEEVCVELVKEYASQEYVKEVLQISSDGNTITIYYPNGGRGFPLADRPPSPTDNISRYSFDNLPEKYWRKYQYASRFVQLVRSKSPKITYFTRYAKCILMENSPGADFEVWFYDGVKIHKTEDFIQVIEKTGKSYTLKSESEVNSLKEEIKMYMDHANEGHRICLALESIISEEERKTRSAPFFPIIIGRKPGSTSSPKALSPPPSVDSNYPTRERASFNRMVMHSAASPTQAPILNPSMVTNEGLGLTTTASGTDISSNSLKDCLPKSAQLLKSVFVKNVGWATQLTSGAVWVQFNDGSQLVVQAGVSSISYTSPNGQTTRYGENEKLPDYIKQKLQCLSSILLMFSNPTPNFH
Chain of human recombinant Aurora B (Q96GD4 whole entry): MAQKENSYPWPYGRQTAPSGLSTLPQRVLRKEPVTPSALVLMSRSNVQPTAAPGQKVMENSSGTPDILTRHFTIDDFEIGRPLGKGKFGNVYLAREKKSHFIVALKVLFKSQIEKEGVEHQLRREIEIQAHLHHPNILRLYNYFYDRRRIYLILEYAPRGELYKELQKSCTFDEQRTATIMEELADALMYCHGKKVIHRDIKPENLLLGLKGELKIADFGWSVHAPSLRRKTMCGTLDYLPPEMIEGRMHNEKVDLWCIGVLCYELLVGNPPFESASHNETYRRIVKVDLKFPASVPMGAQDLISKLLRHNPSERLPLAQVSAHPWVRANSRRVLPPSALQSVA
Chain of human recombinant Aurora A (O14965 whole entry): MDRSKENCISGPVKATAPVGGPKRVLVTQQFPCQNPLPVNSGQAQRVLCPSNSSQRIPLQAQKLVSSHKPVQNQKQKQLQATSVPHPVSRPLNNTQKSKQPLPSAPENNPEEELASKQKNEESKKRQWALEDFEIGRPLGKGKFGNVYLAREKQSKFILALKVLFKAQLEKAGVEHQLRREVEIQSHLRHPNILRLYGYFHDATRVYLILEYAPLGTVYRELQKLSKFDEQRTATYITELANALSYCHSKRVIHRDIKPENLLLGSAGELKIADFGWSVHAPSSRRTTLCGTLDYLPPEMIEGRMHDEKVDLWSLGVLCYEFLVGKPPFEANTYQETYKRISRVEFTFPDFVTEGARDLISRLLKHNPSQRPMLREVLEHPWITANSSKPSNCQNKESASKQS

Regarding `COc1ccc2c(c1)[C@]1(C[C@H]1c1ccc3c(Nc4nc(N(C)C)nc5c4CCC5)n[nH]c3c1)C(=O)N2` [Example 213, (1R,2S)-2-(3-{[2-(dimethylamino)-6,7-dihydro-5H-cyclopenta[d]pyrimidin-4-yl]amino}-1H-indazol-6-yl)-5′-methoxyspiro[cyclopropane-1,3′-indol]-2′(1′H)-one], the “[Aurora B IC50 (nM)]/[PLK4 IC50 (nM)]” value in test [1] was found to be 225.3871. Also, the IC50 in test [2] came out at 190 nM; in test [3], 2.13 nM. In addition, the “[Aurora A IC50 (nM)]/[PLK4 IC50 (nM)]” value in test [4] is given as 92.2102.

Consider `CCOc1nc(C(=O)N(C)C)ccc1Nc1n[nH]c2cc([C@@H]3C[C@@]34C(=O)Nc3ccc(OC)cc34)ccc12` [Example 214, 6-ethoxy-5-({6-[(1R,2S)-5′-methoxy-2′-oxo-1′,2′-dihydrospiro[cyclopropane-1,3′-indol]-1-yl]-1H-indazol-3-yl}amino)-N,N-dimethylpyridine-2-carboxamide], for which the “[Aurora B IC50 (nM)]/[PLK4 IC50 (nM)]” value in test [1] amounted to 59.0999. The results for the IC50 in test [2] and in test [3] were 32.2 nM and 1.01 nM, respectively. The “[Aurora A IC50 (nM)]/[PLK4 IC50 (nM)]” value in test [4] stood at 953.

Regarding `COc1ccc2c(c1)[C@]1(C[C@H]1c1ccc3c(Nc4ccc(N5CCCC5=O)nc4OC)n[nH]c3c1)C(=O)N2` [Example 215, (1R,2S)-5′-methoxy-2-(3-{[2-methoxy-6-(2-oxopyrrolidin-1-yl)pyridin-3-yl]amino}-1H-indazol-6-yl)spiro[cyclopropane-1,3′-indol]-2′(1′H)-one], in test [1], the “[Aurora B IC50 (nM)]/[PLK4 IC50 (nM)]” value amounted to 53.57. Further, the IC50 in test [2] turned out to be 192 nM; in test [3], 2.1 nM. Besides, the “[Aurora A IC50 (nM)]/[PLK4 IC50 (nM)]” value in test [4] is 986.6539.

Consider `COc1ccc2c(c1)[C@]1(C[C@H]1c1ccc3c(Nc4cc(S(=O)(=O)N5CCOCC5)ccc4OC)n[nH]c3c1)C(=O)N2` [Example 216, (1R,2S)-5′-methoxy-2-{3-[2-methoxy-5-(morpholine-4-sulfonyl)anilino]-1H-indazol-6-yl}spiro[cyclopropane-1,3′-indol]-2′(1′H)-one], for which, in test [1], the “[Aurora B IC50 (nM)]/[PLK4 IC50 (nM)]” value came to 18601.19048. Further, the IC50 in test [2] was found to be 766 nM; in test [3] it was 2.69 nM. Besides, the “[Aurora A IC50 (nM)]/[PLK4 IC50 (nM)]” value in test [4] worked out at 7712.

As to `COc1ccc2c(c1)[C@]1(C[C@H]1c1ccc3c(Nc4nc5cccnc5cc4OC)n[nH]c3c1)C(=O)N2` [Example 217, (1R,2S)-5′-methoxy-2-{3-[(3-methoxy-1,5-naphthyridin-2-yl)amino]-1H-indazol-6-yl}spiro[cyclopropane-1,3′-indol]-2′(1′H)-one], in test [1], the “[Aurora B IC50 (nM)]/[PLK4 IC50 (nM)]” value turned out to be 170.9840. Moreover, the results for the concentration for half-maximal inhibition (IC50) in test [2] and in test [3] were 450 nM and 1.19 nM, respectively. For the same compound, the “[Aurora A IC50 (nM)]/[PLK4 IC50 (nM)]” value in test [4] is 416.7367.

Take `COc1ccc2c(c1)[C@]1(C[C@H]1c1ccc3c(Nc4ccc(C(=O)N(C)OC)nc4OC)n[nH]c3c1)C(=O)N2` [Example 218, N,6-dimethoxy-5-({6-[(1R,2S)-5′-methoxy-2′-oxo-1′,2′-dihydrospiro[cyclopropane-1,3′-indol]-2-yl]-1H-indazol-3-yl}amino)-N-methylpyridine-2-carboxamide]: the “[Aurora B IC50 (nM)]/[PLK4 IC50 (nM)]” value in test [1] is reported as 70.8586. The half-inhibitory concentration (IC50) stood at 73.8 nM in test [2] and 0.955 nM in test [3]. For the same compound, the “[Aurora A IC50 (nM)]/[PLK4 IC50 (nM)]” value in test [4] amounted to 806.5968.

Turning to `COc1ccc2c(c1)[C@]1(C[C@H]1c1ccc3c(Nc4ccc(C(=O)NNC(C)C)nc4OC)n[nH]c3c1)C(=O)N2` [Example 219, 6-methoxy-5-({6-[(1R,2S)-5′-methoxy-2′-oxo-1′,2′-dihydrospiro[cyclopropane-1,3′-indol]-2-yl]-1H-indazol-3-yl}amino)-N′-(propan-2-yl)pyridine-2-carbohydrazide], in test [1], the “[Aurora B IC50 (nM)]/[PLK4 IC50 (nM)]” value was 64.2571. Further, the values for the IC50 in test [2] and in test [3] were 510 nM and 2.5 nM, respectively. Further, the “[Aurora A IC50 (nM)]/[PLK4 IC50 (nM)]” value in test [4] stood at 763.5782.

On to `COc1ccc2c(c1)[C@]1(C[C@H]1c1ccc3c(Nc4ccc(S(=O)(=O)N(C)C)nc4OC)n[nH]c3c1)C(=O)N2` [Example 222, 6-methoxy-5-({6-[(1R,2S)-5′-methoxy-2′-oxo-1′,2′-dihydrospiro[cyclopropane-1,3′-indol]-2-yl]-1H-indazol-3-yl}amino)-N,N-dimethylpyridine-2-sulfonamide], for which the “[Aurora B IC50 (nM)]/[PLK4 IC50 (nM)]” value in test [1] is given as 546.4311. Moreover, the 50% inhibitory concentration (IC50) is 456 nM in test [2] and 1.36 nM in test [3]. Further, in test [4], the “[Aurora A IC50 (nM)]/[PLK4 IC50 (nM)]” value stood at 446.1368.

As for `CCOc1nc(S(=O)(=O)N(C)C)ccc1Nc1n[nH]c2cc([C@@H]3C[C@@]34C(=O)Nc3ccc(OC)cc34)ccc12` [Example 223, 6-ethoxy-5-({6-[(1R,2S)-5′-methoxy-2′-oxo-1′,2′-dihydrospiro[cyclopropane-1,3′-indol]-2-yl]-1H-indazol-3-yl}amino)-N,N-dimethylpyridine-2-sulfonamide], the “[Aurora B IC50 (nM)]/[PLK4 IC50 (nM)]” value in test [1] stood at 445.3125. In addition, the concentration for half-maximal inhibition (IC50) in test [2] came to 163 nM; in test [3], 2.3 nM. The “[Aurora A IC50 (nM)]/[PLK4 IC50 (nM)]” value in test [4] is reported as 1004.7743.

`COc1ccc2c(c1)[C@]1(C[C@H]1c1ccc3c(Nc4cc(C(C)(C)O)cnc4OC)n[nH]c3c1)C(=O)N2` [Example 226, (1R,2S)-2-(3-{[5-(2-hydroxypropan-2-yl)-2-melhoxypyridin-3-yl]amino}-1H-indazol-6-yl)-5′-methoxyspiro[cyclopropane-1,3′-indol]-2′(1′H)-one]: the “[Aurora B IC50 (nM)]/[PLK4 IC50 (nM)]” value in test [1] was found to be 474.6155. Also, the figures for the half-inhibitory concentration (IC50) in test [2] and in test [3] were 2150 nM and 4.75 nM, respectively. In addition, the “[Aurora A IC50 (nM)]/[PLK4 IC50 (nM)]” value in test [4] is reported as 2759.6376.

For the compound `CCS(=O)(=O)c1cnc(Nc2n[nH]c3cc([C@@H]4C[C@@]45C(=O)Nc4ccc(OC)cc45)ccc23)c(OC)c1` [Example 228, (1R,2S)-2-(3-{[5-(Ethanesulfonyl)-3-methoxypyridin-2-yl]amino}-1H-indazol-6-yl)-5′-methoxyspiro[cyclopropane-1,3′-indol]-2′(1′H)-one], the “[Aurora B IC50 (nM)]/[PLK4 IC50 (nM)]” value in test [1] worked out at 340.4602. The half-inhibitory concentration (IC50) in test [2] is 180 nM; in test [3], 1.35 nM. The “[Aurora A IC50 (nM)]/[PLK4 IC50 (nM)]” value in test [4] came out at 813.6599.

Turning to `COc1ccc2c(c1)[C@]1(C[C@H]1c1ccc3c(Nc4ccc(C(=O)NCC5CC5)nc4OC)n[nH]c3c1)C(=O)N2` [Example 230, N-(cyclopropylmethyl)-6-methoxy-5-({6-[(1R,2S)-5′-methoxy-2′-oxo-1′,2′-dihydrospiro[cyclopropane-1,3′-indol]-2-yl]-1H-indazol-3-yl}amino)pyridine-2-carboxamide], in test [1], the “[Aurora B IC50 (nM)]/[PLK4 IC50 (nM)]” value is 213.4346. In addition, the IC50 worked out at 395 nM in test [2] and 2.43 nM in test [3]. The “[Aurora A IC50 (nM)]/[PLK4 IC50 (nM)]” value in test [4] worked out at 12432.2103.

For `COc1ccc2c(c1)[C@]1(C[C@H]1c1ccc3c(Nc4ccc(C(=O)NC(C)C)nc4OC)n[nH]c3c1)C(=O)N2` [Example 231, 6-methoxy-5-({6-[(1R,2S)-5′-methoxy-2′-oxo-1′,2′-dihydrospiro[cyclopropane-1,3′-indol]-2-yl]-1H-indazol-3-yl}amino)-N-(propan-2-yl)pyridine-2-carboxamide], the “[Aurora B IC50 (nM)]/[PLK4 IC50 (nM)]” value in test [1] is 316.7307. For the same compound, the 50% inhibitory concentration (IC50) in test [2] was found to be 397 nM; in test [3] it was 1.56 nM. Besides, in test [4], the “[Aurora A IC50 (nM)]/[PLK4 IC50 (nM)]” value worked out at 4955.7692.
